# Source: patent US20250032484A1, “THERAPEUTIC TARGETS AND AGENTS FOR THE TREATMENT OF POSTTRAUMATIC STRESS DISORDER” (priority 2021, published 2025)
# Experiments:
# [1] = test system: VA patients with PTSD (PTSD symptoms, PTSD Checklist); assay: TreeScan nested case-control study of medications associated with PTSD symptom improvement (PTSD Checklist) in VA records; format: in vivo, human
# Experimental: Study Sample and Data Sources. A nested case-control study was conducted within a previously established retrospective cohort that included all VA users with a clinical diagnosis of PTSD (International Classification of Diseases [ICD]-9:309.81, ICD-10: F43.1x) from Oct. 1, 1999 through Sep. 30, 2019 (Shiner et al. (2021) J Eval Clin Pract.). The data source contains information on services use, clinical diagnoses, filled prescriptions, and patient-reported outcome measures (PROMs) for PTSD using the PTSD Checklist (PCL) for these patients. This study was approved by the Veterans Institutional Review Board of Northern New England.
# The goal of the current study was to evaluate any filled medications associated with PTSD symptom improvement, and as such, the analytic sample for this study included only patients with PROMs that were at least 30 days apart. 30 days was selected to allow for medications to be taken for at least one full course (typically 28 days). Patients with PROMs more than 365 days apart were excluded as these are unlikely to provide an accurate assessment of PTSD symptom change between the two time points. For patients who had two overlapping PROM intervals, those closest to 84 days in length were chosen to emulate typical PTSD medication efficacy trials (Watts et al. (2013) J Clin Psychiatry. 74: e541-550). When a patient had two or more overlapping intervals at exactly 84 days, the historically earliest interval was chosen. If patients had multiple non-overlapping intervals, all were included. Patients who met the selection criteria for PTSD in the original cohort and had at least one PROM pair where they started a new medication (defined below) constituted the overall analytic sample for the current study.
# PTSD Improvement Cases and No Improvement Controls. In order to maximize the number of patients with available symptomatic measurement, two different versions of a PROM for PTSD were integrated into a single dataset (Shiner et al. (2021) J Eval Clin Pract.). The two PROMs were the PCL versions aligned to the Diagnostic and Statistical Manual of Mental Disorders (DSM), version IV and Version 5 (APA (2000): Diagnostic and Statistical Manual of Mental Disorders. 4th Edition. Text Revision: DSM-IV-TR. Arlington, VA: American Psychiatric Association: APA (2013): Diagnostic and Statistical Manual of Mental Disorders: Fifth Edition (DSM-5). Washington, D.C.: American Psychiatric Association), which will heretofore be called the PCL-IV and the PCL-5 (Blevins et al. (2015) J Trauma Stress. 28:489-498: Weathers et al. (1993) Trauma. Coping. and Adaptation. San Antonio, Texas: International Society for Traumatic Stress Studies, 9th Annual Meeting). […] A validated crosswalk (ICC=0.96) was used to convert all values to PCL-5 scoring (Moshier et al. (Under review): An empirical crosswalk for the PTSD Checklist: Translating DSM-IV to DSM-5). PTSD improvement cases were defined by a clinically meaningful improvement, which was a decrease of 15 points or more between assessment points (Lee et al. (2019) Reliable Change Index and Clinically Significant Margins for the CAPS-5 and PCL-5 among Veterans. Boston, MA: International Society for Traumatic Stress Studies, 35th Annual Meeting). […] Thus, the no PTSD improvement control group was defined as worsening of symptoms or reductions of up to 7 points on the PCL. Improvements between 8 and 14 points were of uncertain clinical significance and were therefore excluded.
# Identification and Classification of New Medications. The predictors of interest were initiation of medications for any indication. Candidate agents included those that were started in the interval between PCL pairs and continued for at least a 28-day supply. When patients started multiple medications between a given PCL pair, they contributed information for each of the medications in the tree.
# [2] = FDA clinical review NDA 209394; cited from earlier work
# [3] = baseline PCL 38 or higher, PTSD diagnosis within 30 days, without any concurrent evidence-based treatment
# [4] = baseline PCL score of 38 or higher and PTSD diagnosis within 30 days
# [5] = overall sample without any concurrent evidence-based treatment
substance,measurement,setting,value
glecaprevir,EXP = Expected Cases,[1]; all patients in the overall sample,16
same,EXP = Expected Cases,[1]; [3],4
same,O:E = Observed Cases over Expected Cases,[1]; [3],3.52
same,OBS = Observed Cases,[1]; [3],14
same,EXP = Expected Cases,[1]; [4],14
same,O:E = Observed Cases over Expected Cases,[1]; [4],2.21
same,OBS = Observed Cases,[1]; [4],30
same,OBS = Observed Cases,"[1]; case = improved by 15 or more points on PTSD Checklist, all patients in the overall sample",33
same,O:E = Observed Cases over Expected Cases,"[1]; improvement in PTSD, all patients in the overall sample",2.09
same,O:E = Observed Cases over Expected Cases,"[1]; improvement in PTSD, all patients in the overall sample, listed as glecaprevir",2.09
same,EXP = Expected Cases,[1]; [5],5
same,O:E = Observed Cases over Expected Cases,[1]; [5],3.09
same,OBS = Observed Cases,[1]; [5],14
same,BBB permeability,[2],poor BBB permeability
